Patent publication US20170216240A1, “METHODS FOR MODULATING IKS CHANNEL ACTIVITY” (UNIVERSITY OF MIAMI, priority 2014, published 2017)

Columns and labels:
Kv7.1/KCNE1 = molecular target: T1, Kv7.1/KCNE1 (Homo sapiens, UniProt P51787); assay: G(V) shift of Kv7.1 co-expressed with KCNE1 in Xenopus oocytes, two-electrode voltage-clamp; assay type: cell-based; details: 70 μM, pH 7.4; for ΔV1/2 ± SEM (G(V) shift): Kv7.1/E1
T1 construct: expressed in transfected cells; host or cells: Xenopus laevis oocytes (cRNA co-injection)
Text: cDNAs encoding human Kv7.1 (GEnBAnk Acc. No. NM_000218) and KCNE1 (NM_000219) were subcloned into the expression vectors pGEM or pXOOM, containing the 5′- and 3′-untranslated regions for Xenopus laevis β-globin as well as a poly-A segment (Jespersen et al., Biotechniques 32, 536-538, 540 (2002)). The truncated KCNE1 construct KCNE1ΔC was constructed by introducing a Stop codon at position 67 using Quikchange site-directed mutagenesis kit (Qiagen). The construct was fully sequenced to ensure proper mutation and absence of unwanted mutations (sequencing by Genewiz). The concatemers E1-Kv7.1-Kv7.1 and E1-Kv7.1 were provided by Dr. R. S. Kass at Columbia University, and can be prepared as described in Chan et al. Journal of General Physiology 132(2), 135-144, (2012)). The E1-Kv7.1 construct was made by linking the C-terminus of KCNE1 to the N-terminus of KCNQ1. The E1-Kv7.1-Kv7.1 construct was made by digesting the E1-Kv7.1 and a Kv7.1-Kv7.1 dimer with Xho1 and inserting the 2-kb fragment from the Kv7.1-Kv7.1 dimer digest into the cut KCNE1-Kv7.1 construct. The DNA encoding E1-Kv7.1-Kv7.1 and E1-Kv7.1 were in the pGEM vector and contained mutations to make the constructs suitable for voltage-clamp fluorometry recordings (Wang et al., J Biol Chem 273, 34069-34074 (1998)). The original KCNE1 and Kv7.1 sequences were therefore removed, one at a time, from the pGEM vector using different restriction enzymes (New England Biolabs). Sequences were separated using gel electrophoresis and harvested using Qiagen gel extraction kit. Corresponding wild type sequences were ligated into the construct using T4 Ligase (New England Biolabs). To ensure correct sequence the constructs were sequenced (Genewiz) and tested with different restriction enzymes in combination with gel electrophoresis to measure length and conformation of the gene. cRNA for injection of all constructs was prepared from linearized DNA using the T7 mMessage mMachine transcription kit (Ambion) according to the manufactures instructions. RNA quality was checked by gel electrophoresis, and RNA concentrations were quantified by UV spectroscopy.
Xenopus laevis oocytes were isolated and maintained (Bentzen, B. H. et al. Neuropharmacology 51, 1068-1077 (2006)). Approximately 50 nl cRNA (50 ng Kv7.1, KCNE1-Kv7.1-Kv7.1 or KCNE1-Kv7.1 alternatively 25 ng Kv7.1 together with 8 ng KCNE1 or KCNE1ΔC) was injected into each oocyte using a Nanojet microinjector (Drummond). Electrophysiological experiments were made 2-5 days after injection. Currents were measured at room temperature with the two-electrode voltage-clamp technique (CA-1B Dagan amplifier). Currents were sampled at 1-3.3 kHz, filtered at 500 Hz, and not leakage corrected. […] A control solution containing (in mM): 88 NaCl, 1 KCl, 15 HEPES, 0.4 CaCl2, and 0.8 MgCl2 was used. NaOH was added to adjust pH to 7.4, yielding a final sodium concentration of about 100 mM. The holding voltage was generally set to −80 mV. Activation curves were generally elicited by stepping to test voltages between −110 and +60 mV (2-4 s durations and 10 mV increments) followed by a tail voltage of −30 mV. For recordings of Kv7.1 at pH 9 and pH 10, the holding voltage was set to more negative voltages because the largest DHA-induced shifts induced channel opening already at −80 mV. […] Therefore, in arachidonyl amine experiments a brief hyperpolarizing pulse of 50 ms to −120 mV was introduced between the test voltage and the tail voltage to relief the channels from inactivation.
Test compounds were dissolved in 99.5% ethanol to a concentration of 100 mM and stored at −20° C. (Börjesson et al., Biophys J 95, 2242-2253 (2008); Börjesson et al., Biophys J 98, 396-403 (2010)). Shortly before experiments, test compounds were diluted in control solution to the desired test concentration. Pure control solution was added to the bath using a gravity-driven perfusion system. […]

in vitro = details: human, Caco-2

CCCCC/C=C\C/C=C\C/C=C\C/C=C\CCCC(=O)NCCS(=O)(=O)O [N-AT, N-arachidonoyl taurine]
ΔV1/2 ± SEM (G(V) shift) (Kv7.1/KCNE1): about −30 mV
ΔV1/2 ± SEM (G(V) shift) (Kv7.1/KCNE1; listed as N-arachidonoyl taurine): about −30 mV
ΔV1/2 ± SEM (G(V) shift) (Kv7.1/KCNE1; listed as N—AT): −27.0 ± 2.5 mV
G(V) shift of a representative cell (control curve shifted) (Kv7.1/KCNE1; Kv7.1/KCNE1): −24 mV
efflux ratio (in vitro): 1.9
